Measured values taken from ChEMBL document CHEMBL1145107, “Peptide science: exploring the use of chemical principles and interdisciplinary collaboration for understanding life processes” (J Med Chem, 2003).
Where a SMILES comes first, the peptide text is derived from it. [ ]: non-standard residue; d: D form. NMeNle = CCCC[C@H](NC)C(=O)O; dNle = CCCC[C@@H](N)C(=O)O

How the values were obtained:
[1] = molecular target: T1, Oxytocin receptor (Homo sapiens, UniProt P30559); experiment: Binding affinity towards oxytocin receptor
T1 sequence (P30559 whole entry): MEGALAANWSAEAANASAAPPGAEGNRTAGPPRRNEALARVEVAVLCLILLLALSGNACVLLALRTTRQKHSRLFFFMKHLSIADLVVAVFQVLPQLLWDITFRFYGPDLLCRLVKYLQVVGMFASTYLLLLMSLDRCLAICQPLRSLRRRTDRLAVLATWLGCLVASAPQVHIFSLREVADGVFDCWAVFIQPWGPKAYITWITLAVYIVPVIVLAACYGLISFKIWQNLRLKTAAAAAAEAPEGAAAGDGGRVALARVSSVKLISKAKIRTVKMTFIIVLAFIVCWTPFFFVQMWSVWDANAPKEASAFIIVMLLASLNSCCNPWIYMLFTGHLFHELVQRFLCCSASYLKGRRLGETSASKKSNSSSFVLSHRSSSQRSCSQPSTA

[2] = molecular target: T2, Cholecystokinin receptor type A (Homo sapiens, UniProt P32238); experiment: Binding affinity towards Cholecystokinin type A receptor (CCK-A) receptor was determined
T2 sequence (P32238 whole entry): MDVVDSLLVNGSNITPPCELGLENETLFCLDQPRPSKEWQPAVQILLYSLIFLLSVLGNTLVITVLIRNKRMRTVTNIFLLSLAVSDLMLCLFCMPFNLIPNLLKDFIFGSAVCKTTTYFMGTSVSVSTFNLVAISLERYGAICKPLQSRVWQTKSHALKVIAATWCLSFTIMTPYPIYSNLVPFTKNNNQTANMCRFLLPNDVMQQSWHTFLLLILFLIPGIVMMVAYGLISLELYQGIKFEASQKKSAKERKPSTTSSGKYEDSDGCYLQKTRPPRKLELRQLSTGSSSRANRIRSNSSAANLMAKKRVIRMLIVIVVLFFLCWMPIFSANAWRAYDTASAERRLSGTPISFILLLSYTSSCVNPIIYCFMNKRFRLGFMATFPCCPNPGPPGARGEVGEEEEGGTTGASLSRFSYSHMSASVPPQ

[3] = molecular target: Delta-type opioid receptor (Homo sapiens, UniProt P41143); experiment: Binding affinity towards Opioid receptor delta 1 was determined
[4] = molecular target: T3, Gastrin/cholecystokinin type B receptor (Homo sapiens, UniProt P32239); experiment: Binding affinity towards Cholecystokinin type B receptor (CCK-B) receptor was determined
T3 sequence (P32239 whole entry): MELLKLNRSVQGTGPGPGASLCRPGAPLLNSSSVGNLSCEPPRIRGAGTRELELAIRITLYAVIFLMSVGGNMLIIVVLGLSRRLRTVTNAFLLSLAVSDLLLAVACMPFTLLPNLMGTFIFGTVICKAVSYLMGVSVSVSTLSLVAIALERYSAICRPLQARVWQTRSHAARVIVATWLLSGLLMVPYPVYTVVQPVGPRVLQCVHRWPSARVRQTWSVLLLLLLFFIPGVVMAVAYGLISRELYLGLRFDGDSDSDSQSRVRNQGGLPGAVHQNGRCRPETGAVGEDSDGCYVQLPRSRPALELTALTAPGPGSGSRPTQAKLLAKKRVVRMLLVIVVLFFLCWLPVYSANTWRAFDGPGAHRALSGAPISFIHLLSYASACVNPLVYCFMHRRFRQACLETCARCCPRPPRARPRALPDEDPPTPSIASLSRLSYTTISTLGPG

[5] = molecular target: T4, Mu-type opioid receptor (Homo sapiens, UniProt P35372); experiment: Binding affinity towards Opioid receptor mu 1 was determined
[6] = system: Anolis carolinensis; experiment: Biological activity using the lizard skin (Anolis carolinensis) assay. The value indicates no prolonged biological activity; type: functional, organism-based
[7] = Biological activity using the frog skin (Rana pipiens) assay. The value indicates no prolonged biological activity; type: functional
[8] = Biological activity using the frog skin (Rana pipiens) assay. The value indicates prolonged biological activity; type: functional
[9] = system: Anolis carolinensis; experiment: Biological activity using the lizard skin (Anolis carolinensis) assay. The value indicates prolonged biological activity; type: functional, organism-based
[10] = molecular target: T4, Mu-type opioid receptor; experiment: Binding affinity towards Opioid receptor mu 1 using [3H]- CTOP as radioligand
[11] = molecular target: Delta-type opioid receptor (Rattus norvegicus, UniProt P33533); experiment: Binding affinity towards Opioid receptor delta 1 using [3H]- [p-CIPhe4] DPDPE as radioligand
Delta-type opioid receptor (Rattus norvegicus, UniProt P33533), sequence (P33533 whole entry): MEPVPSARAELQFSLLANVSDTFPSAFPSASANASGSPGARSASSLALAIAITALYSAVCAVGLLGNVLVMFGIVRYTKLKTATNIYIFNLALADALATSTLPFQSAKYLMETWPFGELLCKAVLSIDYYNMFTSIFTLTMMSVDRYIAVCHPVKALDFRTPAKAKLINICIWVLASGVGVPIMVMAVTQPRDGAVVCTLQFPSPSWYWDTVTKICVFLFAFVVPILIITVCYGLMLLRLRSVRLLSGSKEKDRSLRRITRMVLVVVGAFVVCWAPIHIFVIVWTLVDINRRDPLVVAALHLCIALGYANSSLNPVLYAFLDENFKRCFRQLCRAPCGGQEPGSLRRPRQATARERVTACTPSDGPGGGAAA

Delta-type opioid receptor (Homo sapiens, UniProt P41143), sequence (P41143 whole entry): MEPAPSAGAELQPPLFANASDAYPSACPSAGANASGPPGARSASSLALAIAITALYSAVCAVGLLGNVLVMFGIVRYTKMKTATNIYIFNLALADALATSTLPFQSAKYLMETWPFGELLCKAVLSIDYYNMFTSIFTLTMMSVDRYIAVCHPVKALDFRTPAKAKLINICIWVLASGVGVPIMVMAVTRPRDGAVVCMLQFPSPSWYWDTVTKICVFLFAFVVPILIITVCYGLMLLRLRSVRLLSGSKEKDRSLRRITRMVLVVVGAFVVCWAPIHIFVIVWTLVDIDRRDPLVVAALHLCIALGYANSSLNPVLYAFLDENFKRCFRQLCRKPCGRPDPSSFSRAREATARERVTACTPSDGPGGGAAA
T4 sequence (P35372 whole entry): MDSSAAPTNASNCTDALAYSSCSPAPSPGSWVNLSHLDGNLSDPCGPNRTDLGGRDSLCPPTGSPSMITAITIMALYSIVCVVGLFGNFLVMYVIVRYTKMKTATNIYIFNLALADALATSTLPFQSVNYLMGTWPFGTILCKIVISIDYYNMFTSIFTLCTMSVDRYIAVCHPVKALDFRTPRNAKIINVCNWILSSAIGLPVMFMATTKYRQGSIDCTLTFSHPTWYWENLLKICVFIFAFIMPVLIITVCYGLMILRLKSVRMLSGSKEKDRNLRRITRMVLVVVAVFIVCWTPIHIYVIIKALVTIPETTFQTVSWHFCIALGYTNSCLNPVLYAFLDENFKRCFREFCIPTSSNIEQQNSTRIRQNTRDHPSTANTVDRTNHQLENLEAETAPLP

Structure (SMILES): CC[C@H](C)[C@@H]1NC(=O)[C@H]([C@@H](C)c2c(C)cc(OC)cc2C)NC(=O)[C@H](N)C(C)(C)SSC[C@@H]2NC(=O)[C@H](CC(N)=O)NC(=O)[C@H](CCC(=O)NCCCC[C@@H](C(=O)NCC(N)=O)NC(=O)[C@@H]3CCCN3C2=O)NC1=O
- IC50 [1]: 8 nM

Structure (SMILES): CC[C@H](C)[C@@H]1NC(=O)[C@H](Cc2ccc(O)cc2)NC(=O)[C@H](N)C(C)(C)SSC[C@@H]2NC(=O)[C@H](CC(N)=O)NC(=O)[C@H](CCC(=O)NCCCC[C@@H](C(=O)NCC(N)=O)NC(=O)[C@@H]3CCCN3C2=O)NC1=O
- IC50 [1]: 130 nM

Structure (SMILES): CCCC[C@@H](C(=O)N[C@@H](CC(=O)O)C(=O)N[C@@H](Cc1ccccc1)C(N)=O)N(C)C(=O)[C@H](Cc1c[nH]c2ccccc12)NC(=O)CNC(=O)CNC(=O)[C@@H](N)Cc1ccc(O)cc1 (H-YGGW[NMeNle]DF-NH2)
- Ki [2]: 870 nM
- Ki [3]: 2000 nM
- Ki [4]: 1.3 nM
- Ki [5]: 610 nM

Structure (SMILES): CC[C@H](C)[C@@H]1NC(=O)[C@@H]([C@H](C)c2c(C)cc(OC)cc2C)NC(=O)[C@H](N)C(C)(C)SSC[C@@H]2NC(=O)[C@H](CC(N)=O)NC(=O)[C@H](CCC(=O)NCCCC[C@@H](C(=O)NCC(N)=O)NC(=O)[C@@H]3CCCN3C2=O)NC1=O
- IC50 [1]: 160 nM

Structure (SMILES): CCCC[C@@H](C(=O)N[C@@H](CC(=O)O)C(=O)N[C@@H](Cc1ccccc1)C(N)=O)N(C)C(=O)[C@@H](Cc1c[nH]c2ccccc12)NC(=O)CNC(=O)[C@@H](C)NC(=O)[C@@H](N)Cc1ccc(O)cc1 (H-Y[dA]G[dW][NMeNle]DF-NH2)
- Ki [2]: 32 nM
- Ki [3]: 1.9 nM
- Ki [4]: 1.3 nM
- Ki [5]: 20 nM

Structure (SMILES): CCCC[C@H](NC(C)=O)C(=O)N[C@H]1CC(=O)NCC[C@@H](C(N)=O)NC(=O)[C@H](Cc2c[nH]c3ccccc23)NC(=O)[C@H](CCCN=C(N)N)NC(=O)[C@@H](Cc2ccccc2)NC(=O)[C@H](Cc2c[nH]cn2)NC1=O
- EC50 [6]: 0.2 nM
- EC50 [7]: 0.5 nM

Structure (SMILES): CCCC[C@H](NC(C)=O)C(=O)N[C@H]1CC(=O)NCCCC[C@@H](C(N)=O)NC(=O)[C@@H]([C@@H](C)c2c[nH]c3ccccc23)NC(=O)[C@H](CCCN=C(N)N)NC(=O)[C@@H](Cc2ccccc2)NC(=O)[C@H](Cc2c[nH]cn2)NC1=O
- EC50 [8]: 0.06 nM
- EC50 [9]: 1.43 nM

Structure (SMILES): CCCC[C@H](NC(C)=O)C(=O)N[C@H]1CCC(=O)NCCCC[C@@H](C(=O)NCC(=O)N2CCC[C@H]2C(=O)N[C@H](C(N)=O)C(C)C)NC(=O)[C@H](Cc2c[nH]c3ccccc23)NC(=O)[C@H](CCCN=C(N)N)NC(=O)[C@@H](Cc2ccccc2)NC(=O)[C@H](Cc2c[nH]cn2)NC1=O
- EC50 [8]: 0.5 nM
- EC50 [9]: 0.17 nM

Structure (SMILES): CCCC[C@H](NC(C)=O)C(=O)N[C@H]1CC(=O)NCCCC[C@@H](C(N)=O)NC(=O)[C@H]([C@H](C)c2c[nH]c3ccccc23)NC(=O)[C@H](CCCN=C(N)N)NC(=O)[C@@H](Cc2ccccc2)NC(=O)[C@H](Cc2c[nH]cn2)NC1=O
- EC50 [6]: 6.7 nM
- EC50 [7]: 29 nM

Structure (SMILES): CCCC[C@H](NC(C)=O)C(=O)N[C@H]1CC(=O)NCCCC[C@@H](C(N)=O)NC(=O)[C@@H]([C@H](C)c2c[nH]c3ccccc23)NC(=O)[C@H](CCCN=C(N)N)NC(=O)[C@@H](Cc2ccccc2)NC(=O)[C@H](Cc2c[nH]cn2)NC1=O
- EC50 [8]: 0.33 nM
- EC50 [9]: 1 nM

Structure (SMILES): CCCC[C@H](NC(C)=O)C(=O)N[C@H]1CC(=O)NCCCC[C@@H](C(=O)NCC(=O)N2CCC[C@H]2C(=O)N[C@H](C(N)=O)C(C)C)NC(=O)[C@H](Cc2c[nH]c3ccccc23)NC(=O)[C@H](CCCN=C(N)N)NC(=O)[C@@H](Cc2ccccc2)NC(=O)[C@H](Cc2c[nH]cn2)NC1=O
- EC50 [8]: 0.5 nM
- EC50 [9]: 0.01 nM

Structure (SMILES): CC[C@H](C)[C@@H]1NC(=O)[C@@H]([C@@H](C)c2c(C)cc(OC)cc2C)NC(=O)[C@H](N)C(C)(C)SSC[C@@H]2NC(=O)[C@@H](CC(N)=O)NC(=O)[C@@H](CCC(=O)NCCCC[C@H](C(=O)NCC(N)=O)NC(=O)[C@H]3CCCN3C2=O)NC1=O
- IC50 [1]: 36000 nM

Structure (SMILES): CCCC[C@H](NC(C)=O)C(=O)N[C@H]1CC(=O)NCCC[C@@H](C(N)=O)NC(=O)[C@H](Cc2c[nH]c3ccccc23)NC(=O)[C@H](CCCN=C(N)N)NC(=O)[C@@H](Cc2ccccc2)NC(=O)[C@H](Cc2c[nH]cn2)NC1=O
- EC50 [6]: 0.05 nM
- EC50 [7]: 0.5 nM

Structure (SMILES): CCCC[C@H](NC(C)=O)C(=O)N[C@H]1CCC(=O)NCCCC[C@@H](C(N)=O)NC(=O)[C@H](Cc2c[nH]c3ccccc23)NC(=O)[C@H](CCCN=C(N)N)NC(=O)[C@@H](Cc2ccccc2)NC(=O)[C@H](Cc2c[nH]cn2)NC1=O
- EC50 [8]: 1 nM
- EC50 [9]: 0.11 nM

Structure (SMILES): Cc1cc(O)cc(C)c1[C@@H](C)[C@H](N)C(=O)N[C@H]1C(=O)NCC(=O)N[C@@H](Cc2ccccc2)C(=O)N[C@@H](C(=O)O)C(C)(C)SSC1(C)C
- IC50 [10]: 4300 nM

Structure (SMILES): CCCC[C@H](NC(C)=O)C(=O)N[C@H]1CC(=O)NC[C@@H](C(N)=O)NC(=O)[C@H](Cc2c[nH]c3ccccc23)NC(=O)[C@H](CCCN=C(N)N)NC(=O)[C@@H](Cc2ccccc2)NC(=O)[C@H](Cc2c[nH]cn2)NC1=O
- EC50 [6]: 0.2 nM
- EC50 [7]: 50 nM

Structure (SMILES): Cc1cc(O)cc(C)c1[C@H](C)[C@H](N)C(=O)N[C@H]1C(=O)NCC(=O)N[C@@H](Cc2ccccc2)C(=O)N[C@@H](C(=O)O)C(C)(C)SSC1(C)C
- IC50 [11]: 210 nM
- IC50 [10]: 720 nM

Structure (SMILES): CCCC[C@@H](NC(=O)[C@@H](N)Cc1ccc(O)cc1)C(=O)NCC(=O)N[C@@H](Cc1c[nH]c2ccccc12)C(=O)N(C)[C@@H](CCCC)C(=O)N[C@@H](CC(=O)O)C(=O)N[C@@H](Cc1ccccc1)C(N)=O (H-Y[dNle]GW[NMeNle]DF-NH2)
- Ki [2]: 3900 nM
- Ki [3]: 1.6 nM
- Ki [4]: 0.6 nM
- Ki [5]: 25 nM

Structure (SMILES): CCCC[C@@H](C(=O)N[C@@H](CC(=O)O)C(=O)N[C@@H](Cc1ccccc1)C(N)=O)N(C)C(=O)[C@H](Cc1c[nH]c2ccccc12)NC(=O)[C@H](CCC(=O)O)NC(=O)[C@@H](Cc1ccccc1)NC(=O)[C@@H](N)Cc1ccc(O)cc1
- Ki [2]: 10000 nM
- Ki [3]: 6.8 nM
- Ki [4]: 2.1 nM
- Ki [5]: 136 nM

Structure (SMILES): CC[C@H](C)[C@@H]1NC(=O)[C@H]([C@H](C)c2c(C)cc(OC)cc2C)NC(=O)[C@H](N)C(C)(C)SSC[C@@H]2NC(=O)[C@@H](CC(N)=O)NC(=O)[C@@H](CCC(=O)NCCCC[C@H](C(=O)NCC(N)=O)NC(=O)[C@H]3CCCN3C2=O)NC1=O
- IC50 [1]: 19000 nM

Structure (SMILES): CCCC[C@@H](C(=O)N[C@@H](CC(=O)O)C(=O)N[C@@H](Cc1ccccc1)C(N)=O)N(C)C(=O)[C@@H](Cc1c[nH]c2ccccc12)NC(=O)CNC(=O)[C@@H](Cc1ccccc1)NC(=O)[C@@H](N)Cc1ccc(O)cc1 (H-Y[dF]G[dW][NMeNle]DF-NH2)
- Ki [3]: 0.5 nM
- Ki [4]: 1.6 nM
- Ki [5]: 5.7 nM

Structure (SMILES): CCCC[C@H](NC(C)=O)C(=O)N[C@H]1CC(=O)NCCCC[C@@H](C(N)=O)NC(=O)[C@H]([C@@H](C)c2c[nH]c3ccccc23)NC(=O)[C@H](CCCN=C(N)N)NC(=O)[C@@H](Cc2ccccc2)NC(=O)[C@H](Cc2c[nH]cn2)NC1=O
- EC50 [7]: 0.44 nM
- EC50 [9]: 1 nM

Structure (SMILES): CCCC[C@@H](C(=O)N[C@@H](CC(=O)O)C(=O)N[C@@H](Cc1ccccc1)C(N)=O)N(C)C(=O)[C@H](Cc1c[nH]c2ccccc12)NC(=O)CNC(=O)[C@@H](Cc1ccccc1)NC(=O)[C@H](Cc1ccc(O)cc1)NC(=O)[C@@H](N)CC(=O)O
- Ki [2]: 3330 nM
- Ki [5]: 5200 nM
